In patent US20260283959A1, “APPLICATION OF […] POWDER INHALER IN PREPARATION OF MEDICAMENT FOR TREATING ACUTE LUNG INJURY” (Anhui University of Chinese Medicine, priority 2025, published 2026):
In brackets after ≈: the same amount, converted by molar mass. Read-outs that look alike come from different tables or passages of the source.

Columns and labels:
[1] = test system: LPS-induced ALI model in rats; experiment: Total protein content in BALF (BCA assay) of ALI rats; format: in vivo, rat; settings: 6 h after administration
Experimental: (§1) Male SD rats were acclimatized for one week, and an ALI model in rats was established using tracheal instillation of LPS. The specific modeling steps were as follows: the rats were first anesthetized with isoflurane, then the rats were fixed in a supine position to facilitate intratracheal administration to the lungs. LPS (8 mg/kg) was nebulized into the alveoli using a microsprayer. The microsprayer was then removed, the animal was placed in a vertical position, and gently rotated for 30 seconds to ensure even distribution of LPS throughout the lungs.
(§2) Referring to relevant literature on synephrine, the maximum human dose of synephrine is 100 mg. Based on the clinically equivalent dose, the dose administered to the rats via gavage was 9 mg/kg, and the low-dose inhalation group was 4.5 mg/kg.
After blood collection, the rats were placed in a supine position on the operating table until their hearts stopped beating. […]
This study used the bicinchoninic acid (BCA) assay to determine the total protein content in BALF. The tissue weight was accurately measured, and physiological saline was added according to the weight-to-volume ratio. […] The test solution was added sequentially according to the protein quantification kit instructions. The absorbance was measured at 562 nm using a microplate reader, and the protein concentration in BALF was calculated.

[2] = test system: LPS-induced ALI model in rats; experiment: Serum inflammatory cytokine levels (ELISA) in LPS-induced rat ALI model; format: in vivo; settings: P<0.0001; 6 h after administration
Experimental: as §1, §2
Six hours after drug administration, rats were anesthetized by intraperitoneal injection of sodium pentobarbital. […]
Rat serum was collected, and the levels of TNF-α, IL-6, IL-8, IL-1β, and IL-1α were measured separately according to the rat ELISA kit instructions. The OD value was measured at 450 nm using a microplate reader. A standard curve was plotted with the concentrations of TNF-α, IL-8, IL-6, IL-1β, and IL-1α standards on the x-axis and the absorbance values on the y-axis. The concentrations of TNF-α, IL-6, IL-8, IL-1β, and IL-1α in serum were calculated based on the standard curve.

[3] = test system: LPS-induced ALI model in rats; experiment: HE and Masson staining of lung tissue in LPS-induced rat ALI model; format: in vivo
Experimental: as §1, §2
Lung tissue fixed in 4% paraformaldehyde was dehydrated, routinely embedded in paraffin, and prepared into 5 μm sections. After dewaxing, the sections were routinely stained with HE, dehydrated, mounted, and observed under a microscope to examine the structure and morphological characteristics of the rat lung tissue in each group.
The sections were routinely dewaxed to water. Hydrophobic zones were drawn, and Bouin's solution was added dropwise. The sections were then covered and incubated at 37° C. After incubation, they were rinsed with running water until the yellow color disappeared. […]

[4] = In vitro pulmonary deposition, next-generation pharmaceutical impactor (NGI); format: physicochemical; settings: 75 L/min, 3.2 s, 10 mg capsules
Description: The in vitro pulmonary deposition of synephrine DPI samples was investigated using the next-generation pharmaceutical impactor (NGI). The various components of the instrument were connected sequentially, including the NGI device, an adapter, an artificial throat, a pre-separator, and a collection tray. After installation, the airtightness and uniformity of the device were checked. The gas flow rate was 75 L/min. At this gas flow rate, the cutoff values Da of each stage of the collection tray were as follows: S1=7.145 μm, S2=3.971 μm, S3=2.522 μm, S4=1.495 μm, S5=0.835 μm, S6=0.481 μm, S7=0.293 μm, and the micro-orifice collector (MOC)=0.104 μm.
The specific method was as follows: 10 mg synephrine micropowder and API were added to No. 3 hydroxypropyl methylcellulose capsules, respectively, and then loaded into a single-capsule inhalation device. After connecting to an NGI, the measurement was performed. Five capsules were inhaled each time. The inhalation flow rate was 75 L/min, and the inhalation duration was 3.2 s. Drug powder deposited at each stage of the NGI was collected using ultrapure water. The synephrine content was determined under UV conditions, and the FPF and respirable fraction (RF) were calculated.

[5] = test system: LPS-induced RAW264.7 cells; experiment: LPS-induced RAW264.7 cellular inflammation model, ELISA of inflammatory mediators; format: cell-based; settings: Mus musculus, LPS-stimulated RAW264.7
Experimental: RAW264.7 cells in logarithmic growth phase were seeded at 100 μL per well in a 96-well plate and cultured at 37° C. and 5% CO2 for 24 hours. The supernatant was aspirated and discarded. 100 μL of medium containing synephrine at an appropriate concentration was added to each well for pretreatment for 1 h, followed by the addition of LPS-containing medium. The cells were then co-incubated with the test substance for 24 hours.
Based on the CCK-8 assay results, RAW264.7 cells in logarithmic growth phase were seeded in 96-well plates and divided into the control group, LPS group, LPS+SYN group, and LPS+SYN-DPI group. A cellular inflammation model was established. After culturing for 24 h, the supernatant from each well was collected and centrifuged at 3500 rpm for 10 min. The supernatant was collected and the subsequent procedures were strictly performed according to the ELISA kit instructions. The absorbance was measured at 450 nm using a microplate reader, and the contents of interleukin (IL)-1B, IL-6, tumor necrosis factor (TNF)-α, and nitric oxide (NO) were calculated.

[6] = Hygroscopicity by dynamic vapor sorption (DVS); format: physicochemical
Experimental: The hygroscopicity of synephrine API and DPI was analyzed using a dynamic vapor sorption (DVS) analyzer. The experimental temperature was set to room temperature (25° C.), the carrier gas was nitrogen, and the total gas flow rate was 200 mL/min. Samples were weighed and placed on the balance tray of the DVS analyzer. The relative humidity (RH) change program was set as required, and the humidity equilibrium time was also set.

[7] = Solubility of synephrine API in different solvents by HPLC; format: physicochemical
Experimental: Column: Agilent C18 (250 mm×4.6 mm, 5 μm) column; mobile phase: 0.1% formic acid (A)-acetonitrile (B); detection wavelength: 273 nm; flow rate: 1 mL/min; column temperature: 30° C.; injection volume: 10 μL; isocratic elution: 1 min to 10 min; 97% A.
Excess synephrine API was weighed and placed in an EP tube. Then, 1.00 mL of each of the following solutions was added: water, anhydrous ethanol, isopropanol, ethyl acetate, n-butanol, n-octanol, acetonitrile, and n-hexane. The mixture was sonicated (300 W, 40 kHz) until no further dissolution occurred. The tube was then centrifuged at 6000 r min^−1 for 15 min, filtered through a 0.22 μm microporous membrane, and the filtrate was diluted with methanol and analyzed under liquid chromatography conditions. The solubility of synephrine in different solvents was calculated.

[8] = Pharmacokinetic study in rats, plasma synephrine by LC-MS/MS; format: in vivo, rat; settings: for Cmax: rat plasma
Experimental: SPF-grade male SD rats, weighing 180-220 g, were housed under identical experimental conditions: temperature (22±1)° C., relative humidity (55±5) %, and a 12-hour light/dark cycle. They had free access to food and water and underwent a one-week acclimatization period before the experiment.
Column: Hypersil GOLD C8 (100 mm×2.1 mm; 3 μm); Mobile phase: Phase A: 0.1% formic acid aqueous solution, Phase B: acetonitrile; Flow rate: 0.3 mL/min; Column temperature: 40° C.; Injection volume: 2 μL; Gradient elution program: 0-1 min, 5% B; 1-4 min, 5%-90% B; 4-5 min, 90%-5% B.
Mass spectrometry was performed in electrospray ionization (ESI) positive ion scanning mode, using multiple reaction monitoring (MRM) detection mode. The collision gas was high-purity nitrogen; capillary voltage: 3.5 kV; nebulizer pressure: 45 psi; desiccator temperature: 300° C.; drying gas flow rate: 5 L/min (N2); sheath gas temperature: 250° C.; sheath gas flow rate: 11 L/min (N2).
Experimental animals were randomly divided into three groups: (1) tail vein injection group, (2) pulmonary inhalation group, and (3) gavage group, with 5 animals in each group. Animals were fasted for 12 h before administration but had free access to water.
Rats were fasted for 12 hours before the experiment but were allowed free access to water. The rats were weighed to calculate the dosage and numbered. After administration, 0.2 mL of blood was collected from the orbital vein at time points of 2 min, 5 min, 10 min, 15 min, 30 min, 1 h, 2 h, 3 h, 4 h, and 6 h. The blood samples were placed in an EP tube containing heparin sodium and were centrifuged at 3500 rpm for 15 min. The supernatant plasma was separated and stored at −80° C. freezer.
190 μL of a rat plasma sample was accurately pipetted into an EP tube. Then, 10 μL of an internal standard solution was added, and the sample was vortexed for 60 s. Next, 400 μL of acetonitrile was added, and the sample was vortexed for 60 s to precipitate proteins. The sample was then centrifuged at 10000 rpm for 15 mins, and the supernatant was passed through a 0.22 μm microporous filter membrane. Finally, the filtered sample was placed in a glass insert for LC-MS/MS analysis.

[9] = test system: LPS-induced ALI model in rats; experiment: Lung wet-to-dry weight ratio in LPS-induced rat ALI model; format: in vivo; settings: SYN 9 mg/kg gavage; SYN-DPI 4.5-18 mg/kg inhalation; 6 h after administration
Experimental: as §1, §2
After instillation of the left lung of the rats, the left and right lungs were collected, washed with physiological saline, and dried. The lower lobe of the left lung was used to determine the wet-to-dry weight ratio of the rat lung tissue. […]
The lower lobe of the left lung of the rat was collected, surface blood was removed, surface moisture was wiped off, and the lobe was weighed. The wet weight was recorded. The lobe was then dried in a 60° C. oven for 24 hours, and the dry weight was recorded. The degree of pulmonary edema was evaluated by calculating the lung wet/dry weight ratio. […]

C[C@@H]1C[C@H]2[C@@H]3CCC4=CC(=O)C=C[C@]4(C)[C@@]3(F)[C@@H](O)C[C@]2(C)[C@@]1(O)C(=O)CO [Dex]
total protein content in BALF compared with the LPS group [1]: significantly improve alveolar interstitial space | expression levels of serum inflammatory cytokines (IL-1α, IL-1β, IL-6, IL-8, TNF-α) compared to the model group [2]: significantly decreased | pathological damage of rat lung tissue (HE, Masson) ([3]; Dex group, 3 mg/kg gavage): significantly alleviated

CNCC(O)c1ccc(O)cc1 (stereo not drawn) [SYN, Synephrine]
expression levels of serum inflammatory cytokines (IL-1α, IL-1β, IL-6, IL-8, TNF-α) compared to the model group [2]: significantly decreased | pathological changes, SYN group compared with low-dose SYN-DPI group ([3]; SYN 9 mg/kg gavage vs SYN-DPI 4.5 mg/kg inhalation): no significant difference in pathological changes | effective in vitro lung deposition rate [4]: 2.25% | emptying rate [4]: 90.98% | fine particle fraction (FPF) [4]: 2.69% | respirable fraction (RF) [4]: 41.26% | inhibition at 200 µM ([5]; 200 μM, read-out: inhibition of NO production): 16.1% | inhibition at 400 µM ([5]; 400 μM, read-out: inhibition rate of IL-6 production): 23.3% | hygroscopicity class (Chinese Pharmacopoeia 2020, 9103 guidelines) ([6]; 90% RH): no or almost no hygroscopicity (hygroscopic weight gain less than 0.2%) | maximum moisture adsorption / moisture absorption weight gain ([6]; 90% RH, 25° C.): 0.12% | moisture absorption weight gain percentage ([6]; normal storage conditions (60% RH), 25° C.): less than 0.2% | solubility ([7]; organic solvent or mixture, solvent: Acetonitrile): 10620 ± 60 µg/mL (≈ 63.5 mM) | solubility ([7]; organic solvent or mixture, solvent: Anhydrous Ethanol): 17200 ± 270 µg/mL (≈ 103 mM) | solubility ([7]; organic solvent or mixture, solvent: Ethyl Acetate): 640 ± 10 µg/mL (≈ 3.83 mM) | solubility ([7]; organic solvent or mixture, solvent: Isopropanol): 7060 ± 120 µg/mL (≈ 42.2 mM) | solubility ([7]; organic solvent or mixture, solvent: n-Butanol): 8760 ± 20 µg/mL (≈ 52.4 mM) | solubility ([7]; organic solvent or mixture, solvent: n-Octanol): 3660 ± 10 µg/mL (≈ 21.9 mM) | solubility ([7]; solvent: Water): 13440 ± 20 µg/mL (≈ 80.4 mM) | Solubility (in words) ([7]; solvent: n-hexane): almost insoluble | Cmax ([8]; iv, injection group (tail vein)): 1030 ng/mL | AUC(0-inf) ([8]; plasma, iv, rat, injection group (tail vein)): 1540 ng·h/mL | half-life ([8]; plasma, iv, rat, injection group (tail vein), read-out: half-life (t½)): 5.33 h | bioavailability ([8]; plasma, po, rat, gavage group, read-out: AUC(0-∞) as % of the injection group): 64.5% | AUC(0-t) ([8]; plasma, po, rat, gavage group, read-out: area-under-the-curve (AUC)(0-t)): 876 ng·h/mL | half-life ([8]; plasma, po, rat, gavage group, read-out: half-life t½): 2.29 h | Cmax ([8]; po, gavage group): 302 ng/mL | Cmax as % of the injection group ([8]; rat, gavage group): 29.24% | half-life (t½) as % of the injection group ([8]; rat, gavage group): 43.01% | wet-to-dry weight ratio of rat lungs compared to the model group [9]: significant reduction
